Reference: patent US20060228347A1, “Antitumor agent and dnase” (Susumu SUNAGA and SUNNYVALE COMPANY, priority 2005, published 2006)
Converted amounts (≈) assume the structure as drawn.

Experiments:
[1] = tested on: MKN-28 cell; experiment: Appearance of mitotic (round) cells after colcemid treatment; assay type: cell-based, human
Procedure: (§1) A synthetic colchicine, colcemid (J. Radiat. Res., 14, 258-270, 1971) was used to prepare the M-phase cell. The optimum conditions for obtaining the living M-phase cell, and the conditions for evaluation the activity of inhibiting a cell proliferation by the MTT method were examined.
(§2) More particularly, cells were cultivated in a 25-cm^2 culture flask (Falcon, 3014, 50 mL) for 3 days. After the mono-layered cells were washed, a growth medium supplemented with 0.025 μg/mL of colcemid (Nakarai, 09356-74) was added, and incubated at 37° C. for 6 hours. After the cells were washed gently, the culture flask was gently shaken to collect cells removed from the bottom of the flask. The collected cells were washed with the medium (GM) by centrifugation to remove colcemid. The washed cells were suspended in the growth medium and incubated.
(§3) The incubated cells were observed under a microscope at intervals of an hour; an appearance of mitotic cells is shown in Table 19. The appearance of mitotic cells was judged by an appearance of round cells as an index. Although almost cultured cells adhere to the glass surface and are thinly spread, mitotic cells become round and tend to leave the glass surface. Therefore, an appearance of round cells which tend to leave the monolayer was used as the index.
(§4) In Table 19, “−” means that the round cells appeared at a percentage of 0% with respect to the whole cells, “±” means that the round cells appeared at a percentage less than 5%, and “+” means that the round cells appeared at a percentage from 5% to less than 30%. The numbers in parentheses of “Round cells/flask” are numbers of positive cells strained by trypan blue.

[2] = tested on: MRC-5 cell; experiment: as above; assay type: cell-based, human
Procedure: as §1, §2, §3, §4

[3] = tested on: HeLa cell; experiment: MTT method, cell proliferation inhibition by cell fractions; assay type: cell-based; conditions: Homo sapiens
Procedure: (§5) More particularly, cells for evaluation, i.e., a cancer cell line (for example, an MKN-28 cell or a HeLa cell) and a normal cell (for example, an MRC-5 cell or an HEF cell) are prepared as cell suspensions. An appropriately diluted series (for example, 1/2, 1/4, 1/8, 1/16, and 1/32) of a DNase solution are poured into each well of a microplate. After each cell suspension is further added into each well, the cells are cultivated for a predetermined period (for example, 4 days). After the cultivation, an MTT [3-(4,5-dimethylthiazol-2-yl)-2,5-diphenyltetrazolium bromide; Sigma chemical Co.] solution is added into each well. After an incubation for a predetermined period (for example, at 37° C. for 4 hours), a culture supernatant is removed from each well, and then an MTT formazan elution liquid [acidified isopropanol containing 10% (V/V) Triton X-100] is added into each well. […] The IC50 value is indicated as a dilution of a test liquid or a concentration (for example, μg/mL) of a test drug which can inhibit a proliferation of a control cell (without an antitumor agent) to 50%. When the dilution is high, or when the drug concentration is low, it can be judged that the drug (substance) tested has a high activity.
(§6) As cells for evaluation, the MKN-28 cell and the HeLa cell were used as cancer cell lines, and the MRC-5 cell was used as a normal cell. After each cell line was cultured for 3 days, cells were treated with trypsin, and dispersed cells were washed with PBS by centrifugation. Washed cells were suspended in a Dulbecco's modified Eagle's MEM medium containing 8% fetal calf serum (hereinafter referred to as GM), and counted with a hemocytometer. Each cell suspension was adjusted with the GM to cell densities of 5000 cells/50 μL and 2500 cells/50 μL (cancer cell lines) or 10000 cells/50 μL and 5000 cells/50 μL (MRC-5 cell).
(§7) To each well in a 96-well flat-bottomed plate, diluted series (undiluted, 1/2, 1/4, 1/8, 1/16, and 1/32; 50 μL/well) of each centrifugal supernatant or centrifugal pellet prepared in Example 1 were added. Further, each cell suspension was added to each well, and the plate was incubated at 37° C. in a CO2 incubator. After 3 or 4 days from the beginning of the incubation, 20 μL/well of an MTT solution was added to each well, and the plate was incubated at 37° C. for 3 hours. The culture supernatant was removed from each well, and 100 μL of an MTT formazan elution liquid was added to each well.
(§8) As a control, PBS was used instead of the diluted series of each centrifugal supernatant or centrifugal pellet. For comparison, 5-fold-diluted series (100 μg/mL, 20 μg/mL, 4 μg/mL, 0.8 μg/mL, 0.16 μg/mL, and 0.032 μg/mL) of 5-fluorouracil (5-FU) were used instead of the diluted series of each centrifugal supernatant or centrifugal pellet.
(§9) The IC50 values when the cancer cell line MKN-28 was used as the cell for evaluation and the centrifugal supernatant and the centrifugal pellet derived from the MKN-28 cell were used as the cell fraction are shown in Table 6. Each IC50 value shown in Table 6 (or Tables 7 to 10 described below) is an average of plural (two to four) values. Each IC50 value is shown as a dilution (i.e., relative value) of a test liquid [or a concentration of a test drug (μg/mL for 5-FU)] which can inhibit a proliferation of a control cell (without an antitumor agent) to 50%.

[4] = tested on: MKN-28 cell; experiment: as above; assay type: cell-based; conditions: Homo sapiens
Procedure: as §5, §6, §7, §8, §9

[5] = tested on: MRC-5 cell; experiment: as above; assay type: cell-based; conditions: Homo sapiens
Procedure: as §5, §6, §7, §8, §9

With `CN[C@H]1CCc2cc(OC)c(OC)c(OC)c2-c2ccc(OC)c(=O)cc21` [colcemid] the Round cells/flask ([1]; MKN-28) was 93000, the “yield of colcemid-treated cells (number of cells after the treatment/number of cells before the treatment)” value ([1]; MKN-28) was 1.4% and the “Appearance of round cells” value ([1]; MKN-28, 1 hr, 0.025 μg/mL colcemid) was “− (the round cells appeared at a percentage of 0% with respect to the whole cells)”. For the same compound, the “Appearance of round cells” value ([1]; MKN-28, 2 hr) was “± (the round cells appeared at a percentage less than 5%)”, the “Appearance of round cells” value ([1]; MKN-28, 3 hr) was “+ (the round cells appeared at a percentage from 5% to less than 30%)” and the “Appearance of round cells” value ([1]; MKN-28, 4 hr) was “+ (the round cells appeared at a percentage from 5% to less than 30%)”. The “Appearance of round cells” value ([1]; MKN-28, 5 hr) was “+ (the round cells appeared at a percentage from 5% to less than 30%)”, the “Round cells/flask: positive cells strained by trypan blue” value ([1]; MKN-28, number in parentheses) was 0 and the Round cells/flask ([2]; MRC-5) was 153000. The “yield of colcemid-treated cells (number of cells after the treatment/number of cells before the treatment)” value ([2]; MRC-5) was 29%, the “Appearance of round cells” value ([2]; MRC-5, 1 hr, 0.025 μg/mL colcemid) was “− (the round cells appeared at a percentage of 0% with respect to the whole cells)” and the “Appearance of round cells” value ([2]; MRC-5, 2 hr) was “± (the round cells appeared at a percentage less than 5%)”. The “Appearance of round cells” value ([2]; MRC-5, 3 hr) was “+ (the round cells appeared at a percentage from 5% to less than 30%)”, the “Appearance of round cells” value ([2]; MRC-5, 4 hr) was “+ (the round cells appeared at a percentage from 5% to less than 30%)” and the “Appearance of round cells” value ([2]; MRC-5, 5 hr) was “+ (the round cells appeared at a percentage from 5% to less than 30%)”. For the same compound, the “Round cells/flask: positive cells strained by trypan blue” value ([2]; MRC-5, number in parentheses) was 0.
For `O=c1[nH]cc(F)c(=O)[nH]1` [5-FU, 5-fluorouracil], the IC50 ([3]; 72 h, Table 7, HeLa (3 days), 2500 cells/well) was 5 µg/mL (≈ 38.4 µM), the IC50 ([3]; 72 h, Table 7, HeLa (3 days), 5000 cells/well) was 7.3 µg/mL (≈ 56.1 µM) and the IC50 ([3]; 72 h, Table 9, 3-day cultivation, 2500 cells/well) was 7 µg/mL (≈ 53.8 µM). The IC50 ([3]; 72 h, Table 9, 3-day cultivation, 5000 cells/well) was 12 µg/mL (≈ 92.3 µM), the IC50 ([3]; 96 h, Table 7, HeLa (4 days), 2500 cells/well) was 3.6 µg/mL (≈ 27.7 µM) and the IC50 ([3]; 96 h, Table 7, HeLa (4 days), 5000 cells/well) was 3.6 µg/mL (≈ 27.7 µM). The IC50 ([3]; 96 h, Table 10, 4-day cultivation, 2500 cells/well) was 6.2 µg/mL (≈ 47.7 µM), the IC50 ([3]; 96 h, Table 10, 4-day cultivation, 5000 cells/well) was 13 µg/mL (≈ 99.9 µM) and the IC50 ([4]; MKN-28, 72 h, Table 6, MKN (3 days), 2500 cells/well) was 4.6 µg/mL (≈ 35.4 µM). It also gave an IC50 ([4]; MKN-28, 72 h, Table 6, MKN (3 days), 5000 cells/well) of 5.9 µg/mL (≈ 45.4 µM), an IC50 ([4]; MKN-28, 72 h, Table 9, 3-day cultivation, MKN, 2500 cells/well) of 4.6 µg/mL (≈ 35.4 µM) and an IC50 ([4]; MKN-28, 72 h, Table 9, 3-day cultivation, MKN, 5000 cells/well) of 6 µg/mL (≈ 46.1 µM). The IC50 ([4]; MKN-28, 96 h, Table 6, MKN (4 days), 2500 cells/well) was 3.7 µg/mL (≈ 28.4 µM), the IC50 ([4]; MKN-28, 96 h, Table 6, MKN (4 days), 5000 cells/well) was 14.8 µg/mL (≈ 114 µM) and the IC50 ([4]; MKN-28, 96 h, Table 10, 4-day cultivation, MKN, 2500 cells/well) was 4.7 µg/mL (≈ 36.1 µM). The IC50 ([4]; MKN-28, 96 h, Table 10, 4-day cultivation, MKN, 5000 cells/well) was 11.6 µg/mL (≈ 89.2 µM), the IC50 ([5]; MRC5, 72 h, Table 8, MRC (3 days), 5000 cells/well) was greater than 100 µg/mL and the IC50 ([5]; MRC5, 72 h, Table 8, MRC (3 days), 10000 cells/well) was greater than 100 µg/mL. For the same compound, the IC50 ([5]; MRC5, 72 h, Table 9, 3-day cultivation, MRC, 5000 cells/well) was greater than 100 µg/mL, the IC50 ([5]; MRC5, 72 h, Table 9, 3-day cultivation, MRC, 10000 cells/well) was greater than 100 µg/mL and the IC50 ([5]; MRC5, 96 h, Table 8, MRC (4 days), 5000 cells/well) was 92 µg/mL (≈ 707 µM). It also gave an IC50 ([5]; MRC5, 96 h, Table 8, MRC (4 days), 10000 cells/well) greater than 100 µg/mL, an IC50 ([5]; MRC5, 96 h, Table 10, 4-day cultivation, MRC, 5000 cells/well) of 92 µg/mL (≈ 707 µM) and an IC50 ([5]; MRC5, 96 h, Table 10, 4-day cultivation, MRC, 10000 cells/well) greater than 100 µg/mL.
